# Data as given in patent publication US20200223839A1, “FLUORO-CONTAINING COMPOUNDS, USE AND PREPARATION THEREOF” (JIANGSU YINGKEBEITA YIYAOKEJI CO. LTD, priority 2017, published 2020).
# Experiments:
# A549 = experiment: Cell culture and cytotoxicity assay (CTG), A549; type: cell-based; settings: Homo sapiens, A549, exposure 72 hours
# Experimental: (§1) The assayed compounds each was dissolved in DMSO with a final concentration of 10 mM or 40 mM and stored at −20° C. Tumor cell lines A549 (7,000 cells/well), BT474 (12,000 cells/well), MDA-MB-468 (12,000 cells/well), and HCC1937 (6,000 cells/well) were seeded on 96-well plates. And the cells were pre-incubated at 37° C./5% CO2 for 24 hours. The cells were exposed to different concentrations of the assay compounds (from 400 μM to 782 nM, from 200 μM to 391 nM, from 100 μM to 196 nM, and from 50 μM to 98 nM) for the following time:
# (§2) After incubation, 100 μL from each well was discarded and CTG base (Proega, G7571, 50 μL) was added and the mixture was agitated for 2 minutes. The mixtures were stored in a dark room for 10 minutes and the viability was analyzed with Multiskan microplate reader.
# BT474 = experiment: Cell culture and cytotoxicity assay (CTG), BT474; type: cell-based; settings: Homo sapiens, BT-474, BT474, exposure 96 hours
# Experimental: as §1, §2
# BT-474 = experiment: Cytotoxicity assay by the CTG method, BT-474; type: cell-based; settings: Homo sapiens, BT-474, Breast cancer, 72 h
# Experimental: (§3) The corresponding cells were harvested from flask into cell culture medium and the cell number were counted. The cells were diluted with culture medium to the desired density and 40 μL of cell suspension was added into each well of 384-well cell culture plate as designated. The plates were covered with lid and placed in room temperature for 30 minutes without shaking and then were transferred plates into 37° C. 5% CO2 incubator overnight for cell attachment.
# (§4) Compound preparation and treatment: Test compounds were received or dissolved at 30 mM stock solution and control compound Staurosporine was stored as 10 mM and 1 mM concentration. 45 uL of stock solution was transferred to a 384 pp-plate. 3 fold, 10-point dilution were performed via transferring 15 uL compound into 30 μL DMSO by using TECAN (EVO200) liquid handler. The plates were spun at room temperature at 1,000 RPM for 1 minute and shaken at a plate shaker for 2 minutes. […]
# (§5) The plate from incubators were placed and equilibrated at room temperature for 15 minutes. […] 40 μL of CellTiter-Glo reagent were transferred into each well to be detected (at 1:1 to culture medium). Then the plates were placed at room temperature for 30 min followed by reading on EnSpire.
# (§6) The inhibition activity was calculated following the formula below: […]
# (§7) The IC50 were calculated by fitting the Curve using Xlfit (v5.3.1.3): […]
# MDA-MB-453 = experiment: Cytotoxicity assay by the CTG method, MDA-MB-453; type: cell-based; settings: Homo sapiens, MDA-MB-453, Breast cancer, 72 h
# Experimental: as §3, §4, §5, §6, §7
# COLO205 = experiment: Cytotoxicity assay by the CTG method, COLO205; type: cell-based; settings: Homo sapiens, COLO 205, COLO205, Colon cancer, 72 h
# Experimental: as §3, §4, §5, §6, §7
# CaKi-1 = experiment: Cytotoxicity assay by the CTG method, CaKi-1; type: cell-based; settings: Homo sapiens, CaKi-1, Kidney cancer, 72 h
# Experimental: as §3, §4, §5, §6, §7
# 786-O = experiment: Cytotoxicity assay by the CTG method, 786-O; type: cell-based; settings: Homo sapiens, 786-0, Kidney cancer, 72 h
# Experimental: as §3, §4, §5, §6, §7
# HL-60 = experiment: Cytotoxicity assay by the CTG method, HL-60; type: cell-based; settings: Homo sapiens, HL-60, Leukemia, 72 h
# Experimental: as §3, §4, §5, §6, §7
# WM-266-4 = experiment: Cytotoxicity assay by the CTG method, WM-266-4; type: cell-based; settings: Homo sapiens, WM-266-4, Melanoma, 72 h
# Experimental: as §3, §4, §5, §6, §7
# OVCAR-3 = experiment: Cytotoxicity assay by the CTG method, OVCAR-3; type: cell-based; settings: Homo sapiens, OVCAR-3, Ovarian cancer, 72 h
# Experimental: as §3, §4, §5, §6, §7
# PC-3 = experiment: Cytotoxicity assay by the CTG method, PC-3; type: cell-based; settings: Homo sapiens, PC-3, Prostate cancer, 72 h
# Experimental: as §3, §4, §5, §6, §7
# LNCaP = experiment: Cytotoxicity assay by the CTG method, LNCaP; type: cell-based; settings: Homo sapiens, Prostate cancer, 72 h
# Experimental: as §3, §4, §5, §6, §7
# MDA-MB-468 cell line = experiment: Anti-tumor activity against MDA-MB-468 cell line (CCK-8 test); type: cell-based; settings: Homo sapiens, MDA-MB-468, 72 h
# Experimental: A cryo tube was removed from liquid nitrogen. As quickly as possible, the cells were thawed by placing the vial in a 37° C. water bath and gently shaking the vials. The cells were transferred to medium tube, which containing 5 mL medium, and were centrifuged at 1000 rpm for 6 min. The supernatant containing dead cells and cell debris was discarded. 1 mL of pre-warmed medium with 10% FBS was add and the solution was re-suspended. The plate was placed in 37° C. and 5% CO2 incubator. The medium was changed next day.
# Cells in logarithmic growth stage were taken and culture medium was discarded. 1 mL 0.25% trypsin solution was added for twice. The trypsin solution was removed and the 0.5 ml 0.25% trypsin solution was added to the cell flask. The plate was placed in 37° C. and 5% CO2 incubator for a few minutes until the cells recovered. 1 mL medium was added to stop digestion. The liquid was transferred by pipette for experiment.
# the cells were suspended and the medium was discarded. 1 mL 0.25% trypsin solution was added for twice and the trypsin digestion was centrifuged. The cells were suspended with the culture medium, count and adjusted to the appropriate concentration.
# The cell suspension was added to the 96-well plate with a volume of 100 uL per well, as shown in Tab. 5, and was placed in 37° C., 5% CO2 incubator overnight.
# Preparation of Compounds Working Solution.
# The test compounds were dissolved in DMSO at 10 mM with sterile filter (0.22 um, nelon, JET). After filtering, the solution were continuously diluted by three times with DMSO. A total of six concentration were prepared, as shown below.
# 6 uL compound solution was added to 594 uL medium and the solution was added to 96-well plate as shown and cultured for 72 h in CO2 incubator.
# A CCK-8 solution was prepared according to the instructions and the 96-well plate was taken out and the original medium discarded. 100 uL cck-8 solution was added to each well in the 96-well plate. Photoabsorption data were read by TECAN enzyme marker after a period of time.
# IC (%)=[Ac-As]/[Ac-Ab]*100% • As: Experimental well (containing culture medium, cell, CCK-8 and compound); • Ac: Controlled well (containing culture medium, cell and CCK-8); • Ab: Blank well (Only containing medium and CCK-8).
# [1] = In vivo mouse model, MDA-MB-453, mice weights; settings: MDA-MB-453 mouse model
# Excerpt: MDA-MB-453 cells (human breast cancer) were also studied in a mouse model. […] FIG. 7.
smiles,measurement,setting,value
"Cc1ccc(S(=O)(=O)Nc2nc3ccccc3nc2Nc2ccc3nsnc3c2)cc1F [Compound 4f, N-[3-(benzo[1,2,5]thiadiazol-5-ylamino)-quinoxalin-2-yl]-3-fluoro-4-methyl-benzenesulfonamide]",IC50,A549,25000 to 50000 nM
same,IC50,BT474,12500 to 25000 nM
same,IC50,BT-474,7.01 µM
same,IC50,MDA-MB-453,1.5 µM
same,IC50,COLO205,2.99 µM
same,IC50,CaKi-1,13 µM
same,IC50,786-O,5.74 µM
same,IC50,HL-60,7.61 µM
same,IC50,WM-266-4,9.1 µM
same,IC50,OVCAR-3,6.68 µM
same,IC50,PC-3,6.05 µM
same,IC50,LNCaP,3.2 µM
same,IC50,MDA-MB-468 cell line,0.912 µM
same,weight changes,"[1]; FIG. 7, 50 mg/Kg",no difference in weight changes
same,weight changes,"[1]; FIG. 7, 100 mg/Kg",no difference in weight changes
